Laboratory results from the supplement of paper PMC13386468.

Experiments:
Assay in all cases: IC50 for competition of protein binding to Kinobeads
Details in all cases: assay detail: Kinobeads competition in P. falciparum blood-stage lysate
UniProt Q8I4V8 = molecular target: UniProt Q8I4V8
UniProt Q8IBS5 = molecular target: UniProt Q8IBS5
UniProt O77310 = molecular target: UniProt O77310
UniProt Q8IIF0 = molecular target: UniProt Q8IIF0
UniProt O97285 = molecular target: UniProt O97285
UniProt Q8I283 = molecular target: UniProt Q8I283
UniProt C6KT50 = molecular target: UniProt C6KT50
Chain of UniProt C6KT50 (C6KT50 whole entry): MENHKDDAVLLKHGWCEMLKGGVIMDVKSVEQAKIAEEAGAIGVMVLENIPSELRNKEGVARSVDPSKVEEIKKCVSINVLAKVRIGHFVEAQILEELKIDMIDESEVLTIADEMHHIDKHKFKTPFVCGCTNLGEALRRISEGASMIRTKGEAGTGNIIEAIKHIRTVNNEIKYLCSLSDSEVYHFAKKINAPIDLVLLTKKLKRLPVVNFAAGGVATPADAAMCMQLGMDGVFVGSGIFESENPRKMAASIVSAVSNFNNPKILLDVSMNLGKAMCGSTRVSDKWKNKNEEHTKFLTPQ

UniProt Q8I1X5 = molecular target: UniProt Q8I1X5
UniProt Q7K6A4 = molecular target: UniProt Q7K6A4
UniProt Q8I3I6 = molecular target: UniProt Q8I3I6
UniProt C6KSQ1 = molecular target: UniProt C6KSQ1
UniProt Q8IAM2 = molecular target: UniProt Q8IAM2
UniProt Q8I5H9 = molecular target: UniProt Q8I5H9
UniProt Q8ILW6 = molecular target: UniProt Q8ILW6
UniProt Q8I546 = molecular target: UniProt Q8I546
UniProt Q8IL13 = molecular target: UniProt Q8IL13
UniProt Q8IJ99 = molecular target: UniProt Q8IJ99
UniProt Q8I2J3 = molecular target: UniProt Q8I2J3
Chain of UniProt Q8I2J3 (Q8I2J3 whole entry): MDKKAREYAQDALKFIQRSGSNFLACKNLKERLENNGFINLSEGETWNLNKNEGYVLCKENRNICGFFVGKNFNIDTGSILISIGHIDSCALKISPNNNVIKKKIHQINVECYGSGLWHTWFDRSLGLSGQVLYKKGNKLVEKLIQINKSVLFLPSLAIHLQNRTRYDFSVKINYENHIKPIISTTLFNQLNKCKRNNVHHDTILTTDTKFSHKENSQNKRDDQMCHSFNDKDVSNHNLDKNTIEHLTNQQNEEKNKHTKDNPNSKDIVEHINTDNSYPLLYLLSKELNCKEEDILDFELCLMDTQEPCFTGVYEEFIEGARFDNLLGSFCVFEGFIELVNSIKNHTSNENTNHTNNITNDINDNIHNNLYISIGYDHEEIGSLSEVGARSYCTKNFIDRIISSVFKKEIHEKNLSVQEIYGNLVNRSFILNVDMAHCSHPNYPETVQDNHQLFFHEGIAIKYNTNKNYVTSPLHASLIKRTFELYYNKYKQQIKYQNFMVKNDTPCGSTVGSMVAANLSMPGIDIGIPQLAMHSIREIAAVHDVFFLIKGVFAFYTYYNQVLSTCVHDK

UniProt Q8II62 = molecular target: UniProt Q8II62
UniProt Q8II73 = molecular target: UniProt Q8II73
UniProt Q8IJA9 = molecular target: UniProt Q8IJA9
UniProt Q8I566 = molecular target: UniProt Q8I566
Chain of UniProt Q8I566 (Q8I566 whole entry): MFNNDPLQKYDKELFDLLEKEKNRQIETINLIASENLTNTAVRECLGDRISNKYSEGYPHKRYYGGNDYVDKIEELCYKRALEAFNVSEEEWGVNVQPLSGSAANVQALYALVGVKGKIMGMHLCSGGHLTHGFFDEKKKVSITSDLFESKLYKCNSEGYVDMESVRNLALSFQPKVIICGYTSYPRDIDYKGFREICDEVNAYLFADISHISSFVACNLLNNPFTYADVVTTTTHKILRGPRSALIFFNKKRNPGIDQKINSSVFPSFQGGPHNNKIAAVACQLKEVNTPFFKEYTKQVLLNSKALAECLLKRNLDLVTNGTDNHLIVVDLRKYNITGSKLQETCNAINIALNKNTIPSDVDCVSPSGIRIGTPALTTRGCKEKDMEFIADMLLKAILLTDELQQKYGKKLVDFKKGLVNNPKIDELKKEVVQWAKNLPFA

UniProt Q8IDB8 = molecular target: UniProt Q8IDB8
UniProt Q8IJT1 = molecular target: UniProt Q8IJT1
UniProt O96210 = molecular target: UniProt O96210
UniProt Q8IJC6 = molecular target: UniProt Q8IJC6
UniProt Q8I1T8 = molecular target: UniProt Q8I1T8
Chain of UniProt Q8I1T8 (Q8I1T8 whole entry): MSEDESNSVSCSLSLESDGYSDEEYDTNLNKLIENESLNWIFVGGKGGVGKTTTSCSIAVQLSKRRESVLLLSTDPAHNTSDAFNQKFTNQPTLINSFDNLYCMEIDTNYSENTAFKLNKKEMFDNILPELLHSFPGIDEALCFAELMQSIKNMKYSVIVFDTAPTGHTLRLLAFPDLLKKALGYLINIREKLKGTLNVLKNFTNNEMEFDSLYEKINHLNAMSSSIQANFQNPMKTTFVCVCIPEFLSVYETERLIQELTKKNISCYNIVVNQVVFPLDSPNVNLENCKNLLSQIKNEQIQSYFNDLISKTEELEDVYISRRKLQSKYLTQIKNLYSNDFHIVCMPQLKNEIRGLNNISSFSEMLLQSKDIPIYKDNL

UniProt P27362 = molecular target: UniProt P27362
Chain of UniProt P27362 (P27362 whole entry): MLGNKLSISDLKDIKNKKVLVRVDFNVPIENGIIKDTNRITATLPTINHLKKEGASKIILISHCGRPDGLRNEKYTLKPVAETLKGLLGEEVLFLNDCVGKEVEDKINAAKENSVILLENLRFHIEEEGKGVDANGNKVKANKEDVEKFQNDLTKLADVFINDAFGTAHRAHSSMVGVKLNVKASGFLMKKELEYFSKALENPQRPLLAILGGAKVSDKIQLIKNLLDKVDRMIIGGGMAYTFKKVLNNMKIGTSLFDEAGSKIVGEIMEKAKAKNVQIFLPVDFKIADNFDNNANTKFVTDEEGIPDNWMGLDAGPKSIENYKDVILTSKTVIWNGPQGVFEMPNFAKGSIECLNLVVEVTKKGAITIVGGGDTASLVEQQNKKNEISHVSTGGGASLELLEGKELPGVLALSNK

UniProt Q8IC06 = molecular target: UniProt Q8IC06
UniProt Q8I5R7 = molecular target: UniProt Q8I5R7
Chain of UniProt Q8I5R7 (Q8I5R7 whole entry): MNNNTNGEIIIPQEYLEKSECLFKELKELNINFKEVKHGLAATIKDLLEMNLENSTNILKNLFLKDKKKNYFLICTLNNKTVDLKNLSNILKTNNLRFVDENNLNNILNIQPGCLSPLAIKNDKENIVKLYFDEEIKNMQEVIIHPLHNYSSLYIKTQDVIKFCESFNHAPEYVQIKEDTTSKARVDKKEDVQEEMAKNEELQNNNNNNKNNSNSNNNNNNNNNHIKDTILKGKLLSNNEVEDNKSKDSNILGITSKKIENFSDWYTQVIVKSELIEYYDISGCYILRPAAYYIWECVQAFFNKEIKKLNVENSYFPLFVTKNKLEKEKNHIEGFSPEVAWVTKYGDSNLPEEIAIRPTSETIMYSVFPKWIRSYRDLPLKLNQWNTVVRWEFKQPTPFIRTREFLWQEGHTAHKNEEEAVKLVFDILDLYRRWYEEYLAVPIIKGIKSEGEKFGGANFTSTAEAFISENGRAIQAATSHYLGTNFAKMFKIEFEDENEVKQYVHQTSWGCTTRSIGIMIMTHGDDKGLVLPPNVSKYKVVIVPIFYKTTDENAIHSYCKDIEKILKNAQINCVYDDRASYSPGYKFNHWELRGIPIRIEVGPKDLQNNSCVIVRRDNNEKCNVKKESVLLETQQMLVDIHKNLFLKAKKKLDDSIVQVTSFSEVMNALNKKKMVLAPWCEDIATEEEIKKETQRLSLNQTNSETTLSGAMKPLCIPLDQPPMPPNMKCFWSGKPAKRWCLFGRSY

UniProt Q8IHT4 = molecular target: UniProt Q8IHT4
UniProt Q8IJP3 = molecular target: UniProt Q8IJP3
UniProt Q7KQK3 = molecular target: UniProt Q7KQK3
UniProt C6KTB9 = molecular target: UniProt C6KTB9
UniProt Q8ILF0 = molecular target: UniProt Q8ILF0
UniProt Q8IJX8 = molecular target: UniProt Q8IJX8
UniProt Q8I374 = molecular target: UniProt Q8I374
UniProt Q8II43 = molecular target: UniProt Q8II43
UniProt Q8IEN3 = molecular target: UniProt Q8IEN3
UniProt P46468 = molecular target: UniProt P46468
Chain of UniProt P46468 (P46468 whole entry): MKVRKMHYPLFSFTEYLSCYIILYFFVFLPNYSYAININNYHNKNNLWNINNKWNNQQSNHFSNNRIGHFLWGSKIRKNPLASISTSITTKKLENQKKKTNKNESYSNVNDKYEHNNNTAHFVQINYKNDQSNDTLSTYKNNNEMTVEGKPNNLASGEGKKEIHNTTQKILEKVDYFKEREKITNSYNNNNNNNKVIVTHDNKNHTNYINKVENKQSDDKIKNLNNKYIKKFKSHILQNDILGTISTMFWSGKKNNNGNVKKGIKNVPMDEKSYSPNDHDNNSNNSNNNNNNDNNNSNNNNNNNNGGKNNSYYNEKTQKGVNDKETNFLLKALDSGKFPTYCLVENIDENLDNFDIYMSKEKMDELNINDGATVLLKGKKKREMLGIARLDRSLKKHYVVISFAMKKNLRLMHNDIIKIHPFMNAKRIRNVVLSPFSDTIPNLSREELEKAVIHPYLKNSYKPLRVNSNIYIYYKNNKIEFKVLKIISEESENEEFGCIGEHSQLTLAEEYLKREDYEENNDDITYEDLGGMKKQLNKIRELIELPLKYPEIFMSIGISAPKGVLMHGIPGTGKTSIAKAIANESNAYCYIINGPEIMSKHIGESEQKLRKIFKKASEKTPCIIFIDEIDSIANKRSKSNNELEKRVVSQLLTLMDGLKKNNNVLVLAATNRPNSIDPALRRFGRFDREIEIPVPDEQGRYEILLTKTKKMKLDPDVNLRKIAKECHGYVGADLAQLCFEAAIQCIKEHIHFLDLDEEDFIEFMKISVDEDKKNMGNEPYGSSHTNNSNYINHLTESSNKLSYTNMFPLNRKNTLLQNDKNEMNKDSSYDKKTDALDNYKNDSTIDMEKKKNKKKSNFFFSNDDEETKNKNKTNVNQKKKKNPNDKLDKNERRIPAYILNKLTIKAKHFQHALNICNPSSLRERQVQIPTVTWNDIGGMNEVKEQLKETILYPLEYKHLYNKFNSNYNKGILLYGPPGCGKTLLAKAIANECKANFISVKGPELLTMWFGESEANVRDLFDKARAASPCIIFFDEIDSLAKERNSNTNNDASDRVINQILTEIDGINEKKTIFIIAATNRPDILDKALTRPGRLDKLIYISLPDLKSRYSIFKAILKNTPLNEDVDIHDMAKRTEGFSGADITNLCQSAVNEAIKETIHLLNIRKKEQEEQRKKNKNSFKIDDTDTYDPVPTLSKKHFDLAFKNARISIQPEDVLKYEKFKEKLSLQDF

UniProt Q8IL41 = molecular target: UniProt Q8IL41
UniProt O77396 = molecular target: UniProt O77396
UniProt Q8I1S0 = molecular target: UniProt Q8I1S0
UniProt O77390 = molecular target: UniProt O77390
UniProt Q8I2P8 = molecular target: UniProt Q8I2P8
UniProt Q8IHR4 = molecular target: UniProt Q8IHR4
UniProt Q8IEQ1 = molecular target: UniProt Q8IEQ1
UniProt Q8IJZ7 = molecular target: UniProt Q8IJZ7
UniProt Q8I1T4 = molecular target: UniProt Q8I1T4
UniProt C0H4L1 = molecular target: UniProt C0H4L1
UniProt Q8IJ37 = molecular target: UniProt Q8IJ37
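Further: native unpurified kinases from lysate captured on beads bearing immobilized kinase inhibitors, with bead-bound kinases quantified by mass spectrometry across compound doses.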

Chain of UniProt Q8IBS5 (Q8IBS5 whole entry): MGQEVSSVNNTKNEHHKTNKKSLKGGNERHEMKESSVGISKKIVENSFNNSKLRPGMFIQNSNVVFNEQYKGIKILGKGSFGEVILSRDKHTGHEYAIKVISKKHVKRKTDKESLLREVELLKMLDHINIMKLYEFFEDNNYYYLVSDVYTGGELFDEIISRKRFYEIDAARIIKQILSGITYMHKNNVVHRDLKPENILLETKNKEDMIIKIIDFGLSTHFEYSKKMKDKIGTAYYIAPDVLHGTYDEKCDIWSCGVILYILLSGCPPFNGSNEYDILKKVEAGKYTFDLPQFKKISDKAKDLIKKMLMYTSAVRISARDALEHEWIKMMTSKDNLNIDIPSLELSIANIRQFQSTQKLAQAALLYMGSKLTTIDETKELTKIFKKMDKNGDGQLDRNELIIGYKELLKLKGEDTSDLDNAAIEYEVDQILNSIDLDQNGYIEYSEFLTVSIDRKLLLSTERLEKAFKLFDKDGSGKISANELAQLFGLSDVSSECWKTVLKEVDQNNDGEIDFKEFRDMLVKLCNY
Chain of UniProt Q8I4V8 (Q8I4V8 whole entry): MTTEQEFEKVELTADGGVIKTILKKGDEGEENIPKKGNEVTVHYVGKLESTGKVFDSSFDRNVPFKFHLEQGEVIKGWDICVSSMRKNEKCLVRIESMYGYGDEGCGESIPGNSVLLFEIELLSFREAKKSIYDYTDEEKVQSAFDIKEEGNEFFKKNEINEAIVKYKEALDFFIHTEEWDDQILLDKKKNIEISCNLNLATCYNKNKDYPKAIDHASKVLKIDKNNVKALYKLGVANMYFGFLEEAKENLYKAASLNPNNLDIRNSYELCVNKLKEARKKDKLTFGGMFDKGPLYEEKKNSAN

Q: With `O=c1[nH]c2ccc(Cl)cc2c(NC2CN3CCC2CC3)c1-c1nc2ccccc2[nH]1` (stereo unspecified) [CHIR-124] as the compound, how does the IC50 (UniProt Q8I4V8) read?
A: > 20 µM

Q: What about the IC50 (UniProt Q8IBS5) of the same compound?
A: > 20 µM

Q: What about the IC50 (UniProt O77310) of the same compound?
A: > 20 µM

Q: What about the IC50 (UniProt Q8IIF0) of the same compound?
A: > 20 µM

Q: And the IC50 (UniProt O97285)?
A: > 20 µM

Q: What about the IC50 (UniProt Q8I283) of the same compound?
A: > 20 µM

Q: What about the IC50 (UniProt C6KT50) of the same compound?
A: > 20 µM

Q: What about the IC50 (UniProt Q8I1X5) of the same compound?
A: > 20 µM

Q: And the IC50 (UniProt Q7K6A4)?
A: > 20 µM

Q: What about the IC50 (UniProt Q8I3I6) of the same compound?
A: > 20 µM

Q: And the IC50 (UniProt C6KSQ1)?
A: 0.299 µM

Q: And the IC50 (UniProt Q8IAM2)?
A: > 20 µM

Q: And the IC50 (UniProt Q8I5H9)?
A: 14 µM

Q: And the IC50 (UniProt Q8ILW6)?
A: > 20 µM

Q: And the IC50 (UniProt Q8I546)?
A: > 20 µM

Q: What about the IC50 (UniProt Q8IL13) of the same compound?
A: > 20 µM

Q: And the IC50 (UniProt Q8IJ99)?
A: > 20 µM

Q: And the IC50 (UniProt Q8I2J3)?
A: > 20 µM

Q: What about the IC50 (UniProt Q8II62) of the same compound?
A: > 20 µM

Q: And the IC50 (UniProt Q8II73)?
A: > 20 µM

Q: What about the IC50 (UniProt Q8IJA9) of the same compound?
A: > 20 µM

Q: What about the IC50 (UniProt Q8I566) of the same compound?
A: > 20 µM

Q: What about the IC50 (UniProt Q8IDB8) of the same compound?
A: > 20 µM

Q: And the IC50 (UniProt Q8IJT1)?
A: > 20 µM

Q: And the IC50 (UniProt O96210)?
A: > 20 µM

Q: And the IC50 (UniProt Q8IJC6)?
A: > 20 µM

Q: And the IC50 (UniProt Q8I1T8)?
A: > 20 µM

Q: What about the IC50 (UniProt P27362) of the same compound?
A: > 20 µM

Q: What about the IC50 (UniProt Q8IC06) of the same compound?
A: > 20 µM

Q: And the IC50 (UniProt Q8I5R7)?
A: > 20 µM

Q: And the IC50 (UniProt Q8IHT4)?
A: > 20 µM

Q: And the IC50 (UniProt Q8IJP3)?
A: > 20 µM

Q: What about the IC50 (UniProt Q7KQK3) of the same compound?
A: > 20 µM

Q: What about the IC50 (UniProt C6KTB9) of the same compound?
A: > 20 µM

Q: And the IC50 (UniProt Q8ILF0)?
A: > 20 µM

Q: What about the IC50 (UniProt Q8IJX8) of the same compound?
A: > 20 µM

Q: What about the IC50 (UniProt Q8I374) of the same compound?
A: > 20 µM

Q: And the IC50 (UniProt Q8II43)?
A: > 20 µM

Q: What about the IC50 (UniProt Q8IEN3) of the same compound?
A: > 20 µM

Q: What about the IC50 (UniProt P46468) of the same compound?
A: > 20 µM

Q: What about the IC50 (UniProt Q8IL41) of the same compound?
A: > 20 µM

Q: And the IC50 (UniProt O77396)?
A: > 20 µM

Q: And the IC50 (UniProt Q8I1S0)?
A: > 20 µM

Q: What about the IC50 (UniProt O77390) of the same compound?
A: > 20 µM

Q: And the IC50 (UniProt Q8I2P8)?
A: > 20 µM

Q: And the IC50 (UniProt Q8IHR4)?
A: > 20 µM

Q: What about the IC50 (UniProt Q8IEQ1) of the same compound?
A: > 20 µM

Q: And the IC50 (UniProt Q8IJZ7)?
A: > 20 µM

Q: And the IC50 (UniProt Q8I1T4)?
A: > 20 µM

Q: What about the IC50 (UniProt C0H4L1) of the same compound?
A: > 20 µM

Q: And the IC50 (UniProt Q8IJ37)?
A: > 20 µM
